ChEMBL document CHEMBL3217756, “Biological and computational evaluation of an oxadiazole derivative (MD77) as a new lead for direct STAT3 inhibitors” (Medchemcomm, 2012)
pIC50: −log10 of the molar value.

Assays:
[1] = molecular target: T1, Signal transducer and activator of transcription 3 (Homo sapiens, UniProt P40763); test: Inhibition of SH2 domain of STAT3 (unknown origin) using (FITC)-GpYLPQTV as substrate preincubated for 15 mins before substrate addition measured after 90 mins by alphascreen based assay
[2] = molecular target: Growth factor receptor-bound protein 2 (Homo sapiens, UniProt P62993); test: Inhibition of SH2 domain of GRB2 (unknown origin) using FITC-PSpYVNVQN as substrate preincubated for 15 mins before substrate addition measured after 90 mins by alphascreen based assay
[3] = molecular target: T1, Signal transducer and activator of transcription 3; test: Inhibition of STAT3 in human HCT116 cells at 5 uM after 24 hrs by dual-light luciferase reporter gene assay; format: cell-based; settings: HCT-116
[4] = system: CCRF-CEM; test: Cytotoxicity against human CCRF-CEM cells after 48 hrs by sulforhodamine B assay; format: functional
[5] = system: NCI-H23; test: Cytotoxicity against human NCI-H23 cells after 48 hrs by sulforhodamine B assay; format: functional; settings: NCI-H23, 48 h
[6] = Cytotoxicity against human HCT15 cells after 48 hrs by sulforhodamine B assay; format: functional; settings: HCT-15, 48 h
[7] = system: HT-29; test: Cytotoxicity against human HT-29 cells after 48 hrs by sulforhodamine B assay; format: functional; settings: HT-29, 48 h
[8] = system: SW-620; test: Cytotoxicity against human SW620 cells after 48 hrs by sulforhodamine B assay; format: functional; settings: SW-620, 48 h
[9] = system: SF-268; test: Cytotoxicity against human SF268 cells after 48 hrs by sulforhodamine B assay; format: functional; settings: SF-268, 48 h
[10] = system: SF-539; test: Cytotoxicity against human SF539 cells after 48 hrs by sulforhodamine B assay; format: functional; settings: SF-539, 48 h
[11] = system: SNB-75; test: Cytotoxicity against human SNB75 cells after 48 hrs by sulforhodamine B assay; format: functional; settings: SNB-75, 48 h
[12] = system: Malme-3M; test: Cytotoxicity against human MALME-3M cells after 48 hrs by sulforhodamine B assay; format: functional
[13] = Cytotoxicity against human UACC62 cells after 48 hrs by sulforhodamine B assay; format: functional; settings: UACC-62, 48 h
[14] = Cytotoxicity against human NCI-ADR-RES cells after 48 hrs by sulforhodamine B assay; format: functional
[15] = system: 786-0; test: Cytotoxicity against human 786-0 cells after 48 hrs by sulforhodamine B assay; format: functional; settings: 786-0, 48 h
[16] = system: A498; test: Cytotoxicity against human A498 cells after 48 hrs by sulforhodamine B assay; format: functional; settings: A498, 48 h
[17] = system: CAKI-1; test: Cytotoxicity against human CAKI-1 cells after 48 hrs by sulforhodamine B assay; format: functional; settings: CAKI-1, 48 h
[18] = system: SN12C; test: Cytotoxicity against human SN12C cells after 48 hrs by sulforhodamine B assay; format: functional
[19] = Cytotoxicity against human UO31 cells after 48 hrs by sulforhodamine B assay; format: functional; settings: UO-31, 48 h
[20] = system: PC-3; test: Cytotoxicity against human PC3 cells after 48 hrs by sulforhodamine B assay; format: functional; settings: PC-3, 48 h
[21] = system: MCF7; test: Cytotoxicity against human MCF7 cells after 48 hrs by sulforhodamine B assay; format: functional; settings: MCF7, 48 h
[22] = Cytotoxicity against human Hs 578T cells after 48 hrs by sulforhodamine B assay; format: functional
[23] = read-out: LC50 (the source's name)
[24] = read-out: pLC50 (the source's name) (converted)

T1 sequence (P40763 whole entry, the tested form may be a part): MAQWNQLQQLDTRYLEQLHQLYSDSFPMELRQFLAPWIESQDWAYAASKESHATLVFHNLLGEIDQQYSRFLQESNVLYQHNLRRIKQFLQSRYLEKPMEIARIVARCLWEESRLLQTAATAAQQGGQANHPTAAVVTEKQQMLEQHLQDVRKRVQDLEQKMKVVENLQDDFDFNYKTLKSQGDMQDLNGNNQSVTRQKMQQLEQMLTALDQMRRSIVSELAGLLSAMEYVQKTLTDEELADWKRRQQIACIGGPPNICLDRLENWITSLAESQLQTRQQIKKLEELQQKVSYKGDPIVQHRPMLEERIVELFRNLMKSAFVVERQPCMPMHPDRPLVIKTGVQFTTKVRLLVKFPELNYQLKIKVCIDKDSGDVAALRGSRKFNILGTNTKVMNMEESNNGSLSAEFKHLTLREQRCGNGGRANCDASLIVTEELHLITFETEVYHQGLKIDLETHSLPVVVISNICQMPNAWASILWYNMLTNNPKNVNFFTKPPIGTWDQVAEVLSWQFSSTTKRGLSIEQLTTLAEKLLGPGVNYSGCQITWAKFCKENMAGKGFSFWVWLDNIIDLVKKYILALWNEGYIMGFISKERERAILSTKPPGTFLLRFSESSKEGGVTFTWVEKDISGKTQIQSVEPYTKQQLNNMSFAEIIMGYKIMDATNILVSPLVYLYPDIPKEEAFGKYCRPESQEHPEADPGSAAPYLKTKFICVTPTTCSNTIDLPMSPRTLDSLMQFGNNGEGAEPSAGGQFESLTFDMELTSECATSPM
Chain of Growth factor receptor-bound protein 2 (P62993 whole entry, the tested form may be a part): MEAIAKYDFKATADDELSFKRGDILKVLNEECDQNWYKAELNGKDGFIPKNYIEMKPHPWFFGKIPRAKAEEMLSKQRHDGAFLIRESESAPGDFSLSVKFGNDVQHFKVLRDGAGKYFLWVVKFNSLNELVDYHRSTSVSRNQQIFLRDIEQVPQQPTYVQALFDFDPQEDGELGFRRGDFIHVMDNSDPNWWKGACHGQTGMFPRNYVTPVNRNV

SMILES: O=C(Nc1nonc1-c1ccc(Cl)cc1)c1ccc(C(F)(F)F)cc1
- pIC50 [1]: 4.75
- inhibition [1]: Dose-dependent effect
- pIC50 [2]: < 4.00
- inhibition [3]: 20%
- GI50 ([4]; read-out: GI50): 0.842 µM
- CC50 [4, 23]: > 100 µM
- TGI ([4]; read-out: TGI): 10.7 µM
- GI50 ([4]; read-out: pGI50 (converted)): 0.851 µM
- CC50 [4, 24]: > 100 µM
- TGI ([4]; read-out: pTGI (converted)): 10.7 µM
- GI50 ([5]; read-out: GI50): 1.89 µM
- CC50 [5, 23]: > 100 µM
- TGI ([5]; read-out: TGI): 7.94 µM
- GI50 ([5]; read-out: pGI50 (converted)): 1.91 µM
- CC50 [5, 24]: > 100 µM
- TGI ([5]; read-out: pTGI (converted)): 7.94 µM
- GI50 ([6]; read-out: GI50): 3.5 µM
- CC50 [6, 23]: > 100 µM
- TGI ([6]; read-out: TGI): > 100 µM
- GI50 ([6]; read-out: pGI50 (converted)): 3.47 µM
- CC50 [6, 24]: > 100 µM
- TGI ([6]; read-out: pTGI): > 100 µM
- GI50 ([7]; read-out: GI50): 3.23 µM
- CC50 [7, 23]: > 100 µM
- TGI ([7]; read-out: TGI): > 100 µM
- GI50 ([7]; read-out: pGI50 (converted)): 3.24 µM
- CC50 [7, 24]: > 100 µM
- TGI ([7]; read-out: pTGI): > 100 µM
- GI50 ([8]; read-out: GI50): 2.82 µM
- CC50 [8, 23]: > 100 µM
- TGI ([8]; read-out: TGI): > 100 µM
- GI50 ([8]; read-out: pGI50 (converted)): 2.82 µM
- CC50 [8, 24]: > 100 µM
- TGI ([8]; read-out: pTGI): > 100 µM
- GI50 ([9]; read-out: GI50): 1.81 µM
- LC50 ([9]; read-out: LC50): > 100 µM
- TGI ([9]; read-out: TGI): > 100 µM
- GI50 ([9]; read-out: pGI50 (converted)): 1.82 µM
- LC50 ([9]; read-out: pLC50 (converted)): > 100 µM
- TGI ([9]; read-out: pTGI): > 100 µM
- GI50 ([10]; read-out: GI50): 3.68 µM
- CC50 [10, 23]: > 100 µM
- TGI ([10]; read-out: TGI): 17.1 µM
- GI50 ([10]; read-out: pGI50 (converted)): 3.72 µM
- CC50 [10, 24]: > 100 µM
- TGI ([10]; read-out: pTGI (converted)): 17 µM
- GI50 ([11]; read-out: GI50): 1.79 µM
- CC50 [11, 23]: > 100 µM
- TGI ([11]; read-out: TGI): 7.54 µM
- GI50 ([11]; read-out: pGI50 (converted)): 1.78 µM
- CC50 [11, 24]: > 100 µM
- TGI ([11]; read-out: pTGI (converted)): 7.59 µM
- GI50 ([12]; read-out: GI50): 1.52 µM
- LC50 ([12]; read-out: LC50): > 100 µM
- TGI ([12]; read-out: TGI): 21.8 µM
- GI50 ([12]; read-out: pGI50 (converted)): 1.51 µM
- LC50 ([12]; read-out: pLC50 (converted)): > 100 µM
- TGI ([12]; read-out: pTGI (converted)): 21.9 µM
- GI50 ([13]; read-out: GI50): 2.11 µM
- CC50 [13, 23]: > 100 µM
- TGI ([13]; read-out: TGI): 6.83 µM
- GI50 ([13]; read-out: pGI50 (converted)): 2.09 µM
- CC50 [13, 24]: > 100 µM
- TGI ([13]; read-out: pTGI (converted)): 6.76 µM
- GI50 ([14]; read-out: GI50): 2.66 µM
- CC50 [14, 23]: > 100 µM
- GI50 ([14]; read-out: pGI50 (converted)): 2.63 µM
- CC50 [14, 24]: > 100 µM
- GI50 ([15]; read-out: GI50): 1.98 µM
- LC50 ([15]; read-out: LC50): > 100 µM
- TGI ([15]; read-out: TGI): 5.19 µM
- GI50 ([15]; read-out: pGI50 (converted)): 2 µM
- LC50 ([15]; read-out: pLC50 (converted)): > 100 µM
- TGI ([15]; read-out: pTGI): 5.25 µM
- GI50 ([16]; read-out: GI50): 1.73 µM
- LC50 ([16]; read-out: LC50): > 100 µM
- TGI ([16]; read-out: TGI): 5.46 µM
- GI50 ([16]; read-out: pGI50 (converted)): 1.74 µM
- LC50 ([16]; read-out: pLC50 (converted)): > 100 µM
- TGI ([16]; read-out: pTGI (converted)): 5.5 µM
- GI50 ([17]; read-out: GI50): 1.9 µM
- CC50 [17, 23]: > 100 µM
- TGI ([17]; read-out: TGI): 7.59 µM
- GI50 ([17]; read-out: pGI50 (converted)): 1.91 µM
- CC50 [17, 24]: > 100 µM
- TGI ([17]; read-out: pTGI (converted)): 7.59 µM
- GI50 ([18]; read-out: GI50): 2.87 µM
- CC50 [18, 23]: > 100 µM
- TGI ([18]; read-out: TGI): > 100 µM
- GI50 ([18]; read-out: pGI50 (converted)): 2.88 µM
- CC50 [18, 24]: > 100 µM
- TGI ([18]; read-out: pTGI): > 100 µM
- GI50 ([19]; read-out: GI50): 2.37 µM
- CC50 [19, 23]: > 100 µM
- TGI ([19]; read-out: TGI): > 100 µM
- GI50 ([19]; read-out: pGI50 (converted)): 2.34 µM
- CC50 [19, 24]: > 100 µM
- TGI ([19]; read-out: pTGI): > 100 µM
- GI50 ([20]; read-out: GI50): 1.38 µM
- CC50 [20, 23]: > 100 µM
- TGI ([20]; read-out: TGI): 8.91 µM
- GI50 ([20]; read-out: pGI50 (converted)): 1.38 µM
- CC50 [20, 24]: > 100 µM
- TGI ([20]; read-out: pTGI (converted)): 8.91 µM
- GI50 ([21]; read-out: GI50): 2.84 µM
- CC50 [21, 23]: > 100 µM
- TGI ([21]; read-out: TGI): 8.15 µM
- GI50 ([21]; read-out: pGI50 (converted)): 2.82 µM
- CC50 [21, 24]: > 100 µM
- TGI ([21]; read-out: pTGI (converted)): 8.13 µM
- GI50 ([22]; read-out: GI50): 2.53 µM
- CC50 [22, 23]: > 100 µM
- TGI ([22]; read-out: TGI): > 100 µM
- GI50 ([22]; read-out: pGI50 (converted)): 2.51 µM
- CC50 [22, 24]: > 100 µM
- TGI ([22]; read-out: pTGI): > 100 µM
